Assays:
[1] = tested on: promastigotes of L. amaz/tc3; assay: Fluorescence assay against promastigotes of L. amaz/tc3 (tdTomato); format: cell-based, Leishmania (Leishmania) amazonensis; settings: Leishmania, 48 h, read-out: IC50 against promastigotes of L. amaz/tc3
Experimental: Then, we evaluated the efficacy of MI, a reference drug for leishmaniasis by the fluorescence method (L. amaz/tc3) and by the conventional method based in counting the parasite at the optic microscope (L. amaz/wt). Mid-log promastigotes of L. amaz/tc3 and L. amaz/wt were harvest and seeded (1 x 10^6/0.1 ml) with different concentrations of MI (40 to 0.6 µg/ml) in a 96-well plate at 23°C. Promastigotes cultured only in medium were the controls. Parasite viability was determined by measuring the fluorescence of L. amaz/tc3 in a plate reader (Tecan, Männedorf, Switzerland) and by counting the mobile promastigotes in a Neubauer chamber at the optic microscope (40x) (Leitz Wetzlar, Germany) at 48 h of incubation with MI. Viability was calculated with the formula: ViabilityL.amaz/tc3 =FLt/FLc×100 where, FLt is the fluorescence of treated culture, and FLc is the fluorescence of control; ViabilityL.amaz/wt=NPt/NPc×100 where, NPt is the number of promastigotes in the treated culture, and NPc is the number of promastigotes in control culture. Then, the 50% inhibitory concentration (IC50) of MI was estimated.
After fluorescence assay validation as it is described above, the method was used to evaluate in vitro the flavonoids anti-leishmanial activity. Mid-log promastigotes of L. amaz/tc3 were harvest and seeded with different concentrations of GAL (1,200 to 18.75 µM), MO, FI and RU (40 to 1.25 µM), and EGCG (300 to 18.75 µM). Positive control were promastigotes treated with PE (4 to 0.25 µM), the negative control were promastigotes cultured with medium only, and the blank was the culture medium. The parasites were incubated at 23°C for 48 h. The anti-leishmanial activity was determined by measuring the parasite fluorescence in a plate reader (Tecan, Männedorf, Switzerland). The viability was estimated as was described above for MI (fluorescent assay). The IC50 was calculated for each compound.

[2] = tested on: Raw 264.7 macrophages infected with L. amaz/tc3; assay: Cytokine production (IL-12p70, IL-10) by macrophages, ELISA of culture supernatant; format: cell-based; settings: 20 µM, 48 h
Experimental: Then, the culture supernatant was recovered and maintained at -80°C until use. The culture supernatant concentrations of IL-12p70 and IL-10 (BD Biosciences, San Diego, USA) were determined by ELISA following the specifications of the supplier. Each condition was performed in quadruplicate.

[3] = Cytotoxicity in macrophage cell line by the MTT method (colorimetric); format: cell-based; settings: mouse, Raw 264.7 macrophage cell line; Raw 264.7, MTT, 48 h; read-out: Colorimetric CC50 μM (SE)
Experimental: The cytotoxicity against a cell line of macrophages (Raw 264.7) of GAL, MO, FI, RU, EGCG, PE, MI and MA was determined by the MTT method. Cells (3.3 x 10^5/ml) cells were treated with different concentrations of each compound during 48 h at 37°C, 5% CO2. The controls were incubated with RPMI-1640 medium. Briefly, 50 µl of MTT (2 mg/mL) was added to each well and, after 4 h of incubation at 37°C, 5% CO2, the reaction was stopped dissolving the formazan crystals with 100 µl/well of dimethyl sulfoxide. The relative amount of formazan produced by viable macrophages was determined using a spectrophotometer at 595 nm. The percentage of viable cells was calculated according to the formula (OD treated culture−OD blank)/(OD control−OD blank) ×100 as was described previously ([Adinehbeigi et al., 2017]). The cytotoxicity concentration 50% (CC50) was calculated for each compound.

[4] = tested on: intracellular amastigotes of L. (L.) amazonensis; assay: Microscopic assay, counting intracellular amastigotes in Raw 264.7 macrophages at the optic microscope; format: cell-based, Leishmania (Leishmania) amazonensis
Experimental: Furthermore, the efficacy of MI was also determined against intracellular amastigotes of L. amaz/tc3 and L. amaz/wt. Raw 264.7 macrophages were plated in 96-well black plate (5 x 10^4 cells/well) and in eight well Lab-Tek tissue culture slides (6.6 x 10^4 cells/ml) (Nunc, USA). The cells were infected with promastigotes in stationary phase of L. amaz/tc3 and L. amaz/wt (1:20 ratio) at 33°C, 5% CO2. After incubation, the infected macrophages were washed to remove non-internalized parasites with PBS plus P-S. New RPMI-1640 medium with different concentrations of MI (20 to 0.62 µg/ml) was added to each well and incubated at 33°C, 5% CO2 during 48 h. The anti-leishmanial activity of MI was determined by measuring the fluorescence of intracellular amastigotes of L. amaz/tc3 in a plate reader (Tecan, Männedorf, Switzerland). The viability was calculated as mentioned above, and the IC50 was also estimated. Simultaneously, the leishmanicidal activity of MI against L. amaz/wt was determined by the microscopy test. In this case, the infected macrophages were stained with Diff Quik (Biopur S.R.L., Rosario, Argentina) and the number of intracellular amastigotes was determined in 200-500 macrophages in treated and control cultures per slide under the immersion lens microscope (100x) (Leitz Wetzlar, Germany). The infection index (II) and the % infectivity (I) were calculated by the following formulas: II = IM × A, where IM= infected macrophages (%), A= number of amastigotes per infected macrophages; and I(%)=IIT/IIc×100, where IIT= infection index in treated cultures, IIC= infection index in control cultures ([Ayres et al., 2008]). The IC50 of MI was calculated.
Then, to estimate the IC50 values of GAL, FI and MO; and to confirm the IC50 of RU, the activity was evaluated quantifying the intracellular amastigotes at the optic microscope. We followed the same methodology described for MI (microscopic assay) in “In Vitro, Fluorescent Assay Validation” section and the range of concentrations were for GAL (30 to 7.5 µM), FI (60 to 15 µM), RU and MO (200 to 50 µM), EGCG (142 a 17.7 µM).

[5] = tested on: promastigotes of L. amaz/tc3; assay: Transmission electron microscopy of treated promastigotes; format: cell-based, Leishmania (Leishmania) amazonensis; settings: exposed to the IC50, 48 h
Experimental: Ultrastructural alterations in Leishmania induced by flavonoids with anti-leishmanial activity were analyzed by transmission electron microscopy (TEM). […] The control was a culture of L. amaz/tc3 incubated in complete RPMI-1640 medium. After 48 h of incubation, samples of L. amaz/tc3 promastigotes from each culture were fixed in modified Karnovsky’s solution (formaldehyde [2.66%], glutaraldehyde [1.66%]) and PBS 0.1M (pH 7,4), and incubated overnight at 4°C. The fixed samples were post-fixed with a 1/1 solution of PBS/2% osmium tetroxide (OsO4), overnight. Then the material was dehydrated and included in Spurr (Pelco, USA). Ultrathin sections were cut with an ultramicrotome (MT1, Sorvall, USA), mounted on copper grids, and contrasted with uranyl acetate (PELCO, USA) and lead citrate.

Compound: O=c1c(O)c(-c2ccccc2)oc2cc(O)cc(O)c12 [GAL, Galangin]
- IC50 [1]: 53.1 µM
- IL-10 concentration in culture supernatant ([2]; between treated groups): did not show significant differences
- IL-12 p70 in culture supernatant, mean (range) ([2]; infected macrophages, infected non-stimulated controls 72.11 pg/ml, p < 0.01): 232.2 pg/mL
- CC50 at 48 h [3]: 22.8 µM
- SI (Selectivity index) ([4]; CC50 for macrophages/IC50 for Leishmania (intracellular amastigotes; Ma from fluorescence IC50)): 1.1
- IC50 ([4]; Leishmania amazonensis, RAW264.7, Raw 264.7 macrophages, 48 h, optic microscope, read-out: Microscopic IC50 μM (SE), intracellular amastigotes): 20.6 µM
- Ultrastructural alterations in promastigotes (TEM) [5]: dramatic changes in the mitochondrial structure

Reference: article PMC8213385, “Development of a Fluorescent Assay to Search New Drugs Using Stable tdTomato-Leishmania, and the Selection of Galangin as a Candidate With Anti-Leishmanial Activity” (Frontiers in Cellular and Infection Microbiology, 2021)
